Laboratory results from ChEMBL document CHEMBL4673260, “Pyridine alkaloids with activity in the central nervous system” (Bioorg Med Chem, 2020).

Assays:
[1] = target: T1, Dopamine beta-hydroxylase (Bos taurus) (UniProt P15101); assay: Inhibition of bovine adrenal medulla DBH at 5 uM relative to control
T1 sequence (whole entry): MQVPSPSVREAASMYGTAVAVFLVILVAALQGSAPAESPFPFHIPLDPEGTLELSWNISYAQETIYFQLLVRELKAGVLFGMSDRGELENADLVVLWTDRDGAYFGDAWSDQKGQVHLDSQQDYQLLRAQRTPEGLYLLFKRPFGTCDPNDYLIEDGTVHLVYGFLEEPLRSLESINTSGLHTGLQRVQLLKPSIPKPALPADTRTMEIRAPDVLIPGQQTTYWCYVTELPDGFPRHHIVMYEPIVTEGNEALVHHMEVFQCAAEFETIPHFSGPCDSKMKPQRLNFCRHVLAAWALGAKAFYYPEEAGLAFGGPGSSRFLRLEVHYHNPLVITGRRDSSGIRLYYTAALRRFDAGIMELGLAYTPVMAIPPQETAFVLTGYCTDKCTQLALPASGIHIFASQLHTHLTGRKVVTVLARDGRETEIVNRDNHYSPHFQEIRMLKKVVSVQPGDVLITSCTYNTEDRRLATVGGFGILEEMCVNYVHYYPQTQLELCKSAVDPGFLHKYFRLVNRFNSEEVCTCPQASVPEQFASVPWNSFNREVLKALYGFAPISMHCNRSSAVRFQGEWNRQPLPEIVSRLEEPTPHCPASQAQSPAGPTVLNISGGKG

[2] = target: T1, Dopamine beta-hydroxylase (Bos taurus); assay: Inhibition of bovine adrenal medulla DBH at 0.5 uM relative to control
[3] = target: T2, Muscarinic acetylcholine receptor M2 (Rattus norvegicus, UniProt P10980); assay: Inhibition of [3H]-methyl-quinuclidinyl benzilate binding to rat heart muscarinic M2 receptor by radioligand binding assay
T2 sequence (P10980 whole entry): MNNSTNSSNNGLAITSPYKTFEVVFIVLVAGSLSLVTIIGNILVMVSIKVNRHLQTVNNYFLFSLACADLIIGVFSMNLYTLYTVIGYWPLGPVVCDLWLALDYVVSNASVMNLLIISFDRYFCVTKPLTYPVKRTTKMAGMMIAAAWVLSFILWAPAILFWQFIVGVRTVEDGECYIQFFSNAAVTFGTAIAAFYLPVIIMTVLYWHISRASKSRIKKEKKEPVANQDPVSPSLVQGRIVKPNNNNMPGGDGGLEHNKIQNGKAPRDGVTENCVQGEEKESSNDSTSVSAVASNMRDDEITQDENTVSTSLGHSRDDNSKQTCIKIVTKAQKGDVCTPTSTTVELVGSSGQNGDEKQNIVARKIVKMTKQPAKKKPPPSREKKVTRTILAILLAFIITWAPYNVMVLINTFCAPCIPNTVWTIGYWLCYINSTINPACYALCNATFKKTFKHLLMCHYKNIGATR

[4] = target: Muscarinic acetylcholine receptor M3 (Rattus norvegicus, UniProt P08483); assay: Inhibition of [3H]-methyl-quinuclidinyl benzilate binding to rat salivary gland muscarinic M3 receptor by radioligand binding assay
Sequence of Muscarinic acetylcholine receptor M3 (P08483 whole entry): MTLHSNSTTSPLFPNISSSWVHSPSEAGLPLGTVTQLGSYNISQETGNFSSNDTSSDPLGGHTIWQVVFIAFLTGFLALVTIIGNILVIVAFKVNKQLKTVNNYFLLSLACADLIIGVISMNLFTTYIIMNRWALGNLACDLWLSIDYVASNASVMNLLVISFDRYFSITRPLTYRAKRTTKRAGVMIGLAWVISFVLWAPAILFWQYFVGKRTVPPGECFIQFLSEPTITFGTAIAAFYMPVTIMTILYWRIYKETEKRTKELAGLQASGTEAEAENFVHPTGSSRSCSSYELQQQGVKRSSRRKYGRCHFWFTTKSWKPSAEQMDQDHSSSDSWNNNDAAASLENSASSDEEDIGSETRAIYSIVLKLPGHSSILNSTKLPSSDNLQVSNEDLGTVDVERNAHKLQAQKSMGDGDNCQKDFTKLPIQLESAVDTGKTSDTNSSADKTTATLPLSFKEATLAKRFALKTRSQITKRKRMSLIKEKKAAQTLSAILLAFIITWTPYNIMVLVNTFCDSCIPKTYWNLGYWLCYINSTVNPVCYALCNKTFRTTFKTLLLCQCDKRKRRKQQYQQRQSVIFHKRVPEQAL

[5] = target: T3, Muscarinic acetylcholine receptor M1 (Rattus norvegicus, UniProt P08482); assay: Inhibition of [3H]-methyl-quinuclidinyl benzilate binding to rat brain muscarinic M1 receptor by radioligand binding assay
T3 sequence (P08482 whole entry): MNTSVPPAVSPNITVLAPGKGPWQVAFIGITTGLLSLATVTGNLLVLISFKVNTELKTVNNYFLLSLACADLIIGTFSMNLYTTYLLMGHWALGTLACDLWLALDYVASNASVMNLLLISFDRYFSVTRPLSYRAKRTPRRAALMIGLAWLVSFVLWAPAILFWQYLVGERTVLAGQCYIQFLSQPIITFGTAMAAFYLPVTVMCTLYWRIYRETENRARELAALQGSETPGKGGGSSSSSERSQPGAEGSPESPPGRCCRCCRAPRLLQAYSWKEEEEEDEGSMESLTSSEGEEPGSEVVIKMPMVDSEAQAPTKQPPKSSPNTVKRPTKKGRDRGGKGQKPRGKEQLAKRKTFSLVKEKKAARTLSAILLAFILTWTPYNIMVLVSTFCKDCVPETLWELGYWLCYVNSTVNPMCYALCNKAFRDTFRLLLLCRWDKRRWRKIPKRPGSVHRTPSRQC

Acetylcholinesterase [6] = target: T4, Acetylcholinesterase (Homo sapiens, UniProt P22303)
T4 sequence (P22303 whole entry): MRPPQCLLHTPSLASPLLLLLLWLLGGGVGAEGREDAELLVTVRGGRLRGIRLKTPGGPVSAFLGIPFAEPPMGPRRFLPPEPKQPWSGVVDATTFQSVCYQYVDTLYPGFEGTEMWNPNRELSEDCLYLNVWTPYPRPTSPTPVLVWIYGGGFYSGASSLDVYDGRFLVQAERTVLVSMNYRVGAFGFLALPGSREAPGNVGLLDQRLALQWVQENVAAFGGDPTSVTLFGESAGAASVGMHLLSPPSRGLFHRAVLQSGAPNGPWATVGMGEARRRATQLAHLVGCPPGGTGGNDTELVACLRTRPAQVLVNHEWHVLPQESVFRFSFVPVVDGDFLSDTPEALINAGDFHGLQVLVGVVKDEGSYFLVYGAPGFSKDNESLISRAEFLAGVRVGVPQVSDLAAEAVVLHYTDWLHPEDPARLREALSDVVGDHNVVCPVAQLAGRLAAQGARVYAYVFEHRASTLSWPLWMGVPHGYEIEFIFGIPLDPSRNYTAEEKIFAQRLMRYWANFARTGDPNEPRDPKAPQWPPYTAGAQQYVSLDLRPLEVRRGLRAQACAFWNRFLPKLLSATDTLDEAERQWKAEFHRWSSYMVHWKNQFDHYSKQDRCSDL

[7] = target: T5, Neuronal acetylcholine receptor; alpha4/beta2 (Rattus norvegicus) (UniProt P09483+P12390); assay: Agonist activity at rat alpha4beta2 expressed in Xenopus oocytes assessed as peak activation at 100 uM relative to control; assay type: cell-based; conditions: Oocyte, filed as agonist
[8] = Displacement of [3H]-(-)-nicotine from rat cerebral cortex nAChR incubated for 60 mins by liquid scintillation spectrometry
Mus musculus = organism: Mus musculus; assay: animal or person
Description: Antinociceptive activity in naloxone treated mouse assessed as induction of Straub-tail response

[9] = target: Neuronal acetylcholine receptor; alpha3/beta4 (Homo sapiens) (UniProt P30926+P32297); assay: Agonist activity at human alpha3beta4 nAChR expressed in mouse/rat hybrid F11 cells assessed as increase in rubidium-86 efflux; assay type: cell-based; conditions: filed as agonist
Torpedo = assay: Agonist activity at Torpedo alpha1beta1deltagamma nACHR; conditions: filed as agonist
[10] = target: T6, Neuronal acetylcholine receptor; alpha4/beta2 (Homo sapiens, UniProt P17787+P43681); assay: Agonist activity at human brain alpha4beta2 nAChR expressed in CHO cells assessed as maximal receptor response by patch clamp electrophysiological assay relative to control; assay type: cell-based; conditions: filed as agonist
T6 sequence (P17787 whole entry): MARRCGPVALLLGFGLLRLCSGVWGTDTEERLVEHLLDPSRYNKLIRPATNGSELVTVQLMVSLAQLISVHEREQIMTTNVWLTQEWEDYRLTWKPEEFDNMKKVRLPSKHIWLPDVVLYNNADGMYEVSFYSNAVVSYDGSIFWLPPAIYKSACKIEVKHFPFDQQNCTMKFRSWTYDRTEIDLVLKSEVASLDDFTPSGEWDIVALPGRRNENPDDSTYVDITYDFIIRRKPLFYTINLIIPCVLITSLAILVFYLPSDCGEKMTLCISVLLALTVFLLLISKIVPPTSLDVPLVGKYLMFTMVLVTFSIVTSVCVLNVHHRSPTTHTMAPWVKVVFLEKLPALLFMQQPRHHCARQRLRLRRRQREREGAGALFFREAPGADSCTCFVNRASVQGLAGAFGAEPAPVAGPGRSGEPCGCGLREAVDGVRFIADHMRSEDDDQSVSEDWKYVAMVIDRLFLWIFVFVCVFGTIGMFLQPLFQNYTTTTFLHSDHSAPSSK
T6 sequence (P43681 whole entry): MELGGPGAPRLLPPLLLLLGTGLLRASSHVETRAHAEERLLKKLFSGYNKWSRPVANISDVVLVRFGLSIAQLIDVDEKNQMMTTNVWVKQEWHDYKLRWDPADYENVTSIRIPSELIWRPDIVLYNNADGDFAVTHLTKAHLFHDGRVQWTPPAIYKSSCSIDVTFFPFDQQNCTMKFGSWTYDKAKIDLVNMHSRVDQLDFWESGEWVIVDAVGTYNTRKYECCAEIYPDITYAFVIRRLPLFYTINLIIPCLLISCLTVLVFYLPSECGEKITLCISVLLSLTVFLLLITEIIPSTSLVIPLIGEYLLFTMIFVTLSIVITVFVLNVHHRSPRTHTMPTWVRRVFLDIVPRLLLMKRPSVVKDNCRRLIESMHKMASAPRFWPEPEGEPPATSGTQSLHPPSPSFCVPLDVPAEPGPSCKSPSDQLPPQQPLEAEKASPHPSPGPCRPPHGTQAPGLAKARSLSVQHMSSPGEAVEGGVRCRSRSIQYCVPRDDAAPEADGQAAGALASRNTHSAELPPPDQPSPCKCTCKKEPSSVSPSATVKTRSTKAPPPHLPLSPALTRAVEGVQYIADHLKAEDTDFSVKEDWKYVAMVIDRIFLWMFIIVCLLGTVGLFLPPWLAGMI

[11] = target: T5, Neuronal acetylcholine receptor; alpha4/beta2 (Rattus norvegicus); assay: Agonist activity at alpha4beta2 nAChR in rat thalamic synaptosomes assessed as 86Rb efflux relative to tetramethylammonium; assay type: subcellular; conditions: Thalamus, filed as agonist
Rattus norvegicus = organism: Rattus norvegicus; assay: Agonist activity at nAChR in rat striatal synaptosomes assessed as [3H]dopamine release relative to tetramethylammonium; assay type: subcellular; conditions: Striatum, filed as agonist
[12] = target: Neuronal acetylcholine receptor subunit alpha-7 (Homo sapiens, UniProt P36544); conditions: filed as agonist
Description: Agonist activity at human alpha7 nAChR (unknown origin)

[13] = Neurotoxicity in ip dosed mouse assessed as mouse death; assay type: toxicity, organism-based; conditions: in vivo
[14] = Neurotoxicity in ip dosed mouse assessed as induction of hindlimb tonic extension; assay type: toxicity, organism-based; conditions: in vivo
[15] = Neurotoxicity in ip dosed mouse assessed as induction of epileptic convulsion; assay type: toxicity, organism-based; conditions: in vivo
[16] = target: T6, Neuronal acetylcholine receptor; alpha4/beta2
Description: Displacement of [3H]cytisine from human alpha4beta2 nAChR by Cheng-Prusoff equation analysis

[17] = target: T6, Neuronal acetylcholine receptor; alpha4/beta2; remark: listed apart in the source
Description: Displacement of [3H]cytisine from human alpha4beta2 nAChR by radioligand competition analysis

[18] = target: Neuronal acetylcholine receptor; alpha4/beta2 (Rattus norvegicus, UniProt P09483+P12390); assay: Displacement of [3H]-cytisine from rat brain membrane alpha4beta2 nAChR; assay type: cell membranes
Sequence of Neuronal acetylcholine receptor; alpha4/beta2 (Rattus norvegicus, UniProt P09483+P12390) (P09483 whole entry): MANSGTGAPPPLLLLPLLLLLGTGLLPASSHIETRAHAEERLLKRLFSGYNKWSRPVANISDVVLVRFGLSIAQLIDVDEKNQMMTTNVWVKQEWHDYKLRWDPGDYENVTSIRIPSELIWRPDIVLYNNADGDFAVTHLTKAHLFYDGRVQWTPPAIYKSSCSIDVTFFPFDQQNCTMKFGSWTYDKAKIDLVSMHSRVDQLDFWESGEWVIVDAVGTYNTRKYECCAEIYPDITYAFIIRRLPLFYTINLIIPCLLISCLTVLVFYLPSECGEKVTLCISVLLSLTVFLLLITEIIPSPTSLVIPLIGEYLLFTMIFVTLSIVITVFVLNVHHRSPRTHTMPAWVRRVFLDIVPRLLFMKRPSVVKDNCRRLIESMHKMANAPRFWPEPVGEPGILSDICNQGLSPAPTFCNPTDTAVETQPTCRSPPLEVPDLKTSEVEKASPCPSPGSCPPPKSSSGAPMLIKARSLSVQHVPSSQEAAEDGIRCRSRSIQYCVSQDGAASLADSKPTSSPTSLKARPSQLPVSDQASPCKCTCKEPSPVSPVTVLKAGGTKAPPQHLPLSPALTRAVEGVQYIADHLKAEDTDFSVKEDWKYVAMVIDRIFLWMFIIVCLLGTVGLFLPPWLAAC
Sequence of Neuronal acetylcholine receptor; alpha4/beta2 (Rattus norvegicus, UniProt P09483+P12390) (P12390 whole entry): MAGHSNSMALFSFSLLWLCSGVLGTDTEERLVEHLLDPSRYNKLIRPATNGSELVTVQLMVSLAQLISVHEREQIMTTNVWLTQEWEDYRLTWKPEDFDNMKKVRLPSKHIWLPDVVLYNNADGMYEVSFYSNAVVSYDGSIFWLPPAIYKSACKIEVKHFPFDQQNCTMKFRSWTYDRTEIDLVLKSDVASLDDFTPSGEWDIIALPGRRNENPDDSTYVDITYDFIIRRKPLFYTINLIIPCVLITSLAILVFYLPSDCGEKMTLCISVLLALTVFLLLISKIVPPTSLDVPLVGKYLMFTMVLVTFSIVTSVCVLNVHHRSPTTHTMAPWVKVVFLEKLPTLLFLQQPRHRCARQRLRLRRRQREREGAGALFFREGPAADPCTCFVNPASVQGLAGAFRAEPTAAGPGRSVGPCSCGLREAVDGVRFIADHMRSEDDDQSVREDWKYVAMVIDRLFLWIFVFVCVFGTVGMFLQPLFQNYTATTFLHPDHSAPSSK

[19] = target: T6, Neuronal acetylcholine receptor; alpha4/beta2; assay: Agonist activity at human alpha4beta2 nAChR expressed in Xenopus oocytes; assay type: cell-based, Oocyte
[20] = target: T6, Neuronal acetylcholine receptor; alpha4/beta2; assay: Agonist activity at human alpha4beta2 nAChR expressed in Xenopus oocytes relative to control; assay type: cell-based; conditions: Oocyte, filed as agonist
[21] = target: Acetylcholinesterase (Electrophorus electricus) (UniProt O42275); assay: Inhibition of electric eel acetylcholinesterase using acetylthiocholine iodide as substrate by Ellman's method relative to control; conditions: concentration not given here
Sequence of Acetylcholinesterase (Electrophorus electricus) (O42275 24-633 limits assumed): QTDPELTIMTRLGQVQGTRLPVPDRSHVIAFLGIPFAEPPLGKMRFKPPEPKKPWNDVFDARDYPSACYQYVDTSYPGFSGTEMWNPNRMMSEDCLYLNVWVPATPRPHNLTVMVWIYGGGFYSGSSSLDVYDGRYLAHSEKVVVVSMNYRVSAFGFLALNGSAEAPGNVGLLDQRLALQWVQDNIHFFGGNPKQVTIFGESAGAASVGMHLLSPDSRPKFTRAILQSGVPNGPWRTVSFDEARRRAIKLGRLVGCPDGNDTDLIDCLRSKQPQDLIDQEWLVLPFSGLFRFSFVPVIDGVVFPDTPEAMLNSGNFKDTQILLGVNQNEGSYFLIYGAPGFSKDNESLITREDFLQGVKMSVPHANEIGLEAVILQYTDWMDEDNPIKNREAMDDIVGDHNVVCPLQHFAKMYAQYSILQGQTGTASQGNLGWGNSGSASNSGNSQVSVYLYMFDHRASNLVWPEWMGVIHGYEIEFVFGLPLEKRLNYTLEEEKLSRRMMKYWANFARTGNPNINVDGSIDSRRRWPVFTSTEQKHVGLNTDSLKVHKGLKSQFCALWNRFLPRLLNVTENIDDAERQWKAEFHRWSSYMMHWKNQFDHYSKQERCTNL

Acetylcholinesterase [22] = target: T4, Acetylcholinesterase; assay: Inhibition of acetylcholinesterase (unknown origin) using acetylthiocholine iodide as substrate incubated for 30 mins by Ellman's coupled enzyme assay
[23] = target: T7, Neuronal acetylcholine receptor subunit alpha-7 (Rattus norvegicus, UniProt Q05941)
T7 sequence (Q05941 whole entry): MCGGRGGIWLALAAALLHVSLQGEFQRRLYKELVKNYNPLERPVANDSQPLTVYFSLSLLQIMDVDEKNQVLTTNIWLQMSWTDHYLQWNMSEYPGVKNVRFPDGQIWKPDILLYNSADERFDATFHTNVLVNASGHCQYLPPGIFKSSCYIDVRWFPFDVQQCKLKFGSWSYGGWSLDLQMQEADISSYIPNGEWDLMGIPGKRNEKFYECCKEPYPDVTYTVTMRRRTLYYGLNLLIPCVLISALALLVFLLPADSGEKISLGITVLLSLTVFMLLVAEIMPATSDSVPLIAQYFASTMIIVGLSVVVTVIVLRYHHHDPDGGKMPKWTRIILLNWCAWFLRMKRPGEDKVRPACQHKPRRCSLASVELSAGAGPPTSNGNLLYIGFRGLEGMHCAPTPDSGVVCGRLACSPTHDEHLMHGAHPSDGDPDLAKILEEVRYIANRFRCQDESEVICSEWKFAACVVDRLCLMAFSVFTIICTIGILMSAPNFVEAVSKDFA
Description: Displacement of [3H]MLA from rat alpha7 nAChR by liquid scintillation counting

[24] = Induction of neurotoxicity in cray fish measured after 24 hrs; conditions: procambarus clarkii
[25] = target: T8, Muscarinic acetylcholine receptor M1 (Rattus norvegicus) (UniProt P08482); conditions: filed as antagonist, time 40.0 min
T8 sequence (whole entry): T3 sequence (P08482 whole entry)

[26] = target: T8, Muscarinic acetylcholine receptor M1 (Rattus norvegicus); conditions: filed as antagonist, time 60.0 min
[27] = Toxicity in iv dosed Swiss-Webster mouse by up-and-down method; assay type: organism-based; conditions: in vivo
[28] = target: T7, Neuronal acetylcholine receptor subunit alpha-7; assay: Displacement of 125I-alpha-bungarotoxin from rat brain alpha7 nAChR by radioligand binding assay

O=C(O)c1ccccn1
inhibition [1]: 83% | inhibition [2]: 55%

c1cc2c[n+](c1)CCCCCCCCCCCCc1ccc[n+](c1)CCCCCCCCCCCC2
IC50 [3]: 36.2 µM | IC50 [4]: 98.8 µM | IC50 [5]: 94.6 µM

CCCCCCCCCCCCCCCCc1c(C(=O)[O-])ccc[n+]1C
IC50 (Acetylcholinesterase [6]): 2100 µM

CC(=O)OCC[N+](C)(C)C
Activity [7]: 242%

Clc1ccc(C2CC3CCC2N3)cn1 (stereo in doubt; (-)) [EPIBATIDINE]
IC50 [8]: 0.00024 µM

CN1CC[C@]23c4c5ccc(O)c4O[C@H]2[C@@H](O)C=C[C@H]3[C@H]1C5 [MORPHINE]
ED50 (Mus musculus): 10 mg/kg

CN1CCC[C@H]1c1cccnc1
ED50 [9]: 14 µM | ED50 (Torpedo): 250 µM | Imax [10]: 159% | Activity [7]: 333% | Emax [11]: 87% | Emax (Rattus norvegicus): 113% | ED50 [12]: 40 µM

O=C(O)C[C@@H]1[C@@H](C(=O)O)NC[C@@H]1c1ccc(=O)[nH]c1
LD [13]: 10 mg/kg | LD [14]: 10 mg/kg | LD [15]: 10 mg/kg

C[C@@H]1CC2N(C)CC3c4cccc(=O)n4CC2(O)C31 (some centres undefined)
Ki [16]: 0.088 µM | IC50 [17]: 0.26 µM

C1=C[C@@H](c2cccnc2)NCC1
Ki [18]: 0.108 µM | EC50 [19]: 1.01 µM | Imax [20]: 78.7%

O=C(O)C[C@@H]1[C@@H](C(=O)O)NC[C@@H]1c1ccc(=O)[nH]c1C(=O)O
LD [13]: 8 mg/kg | LD [14]: 8 mg/kg | LD [15]: 8 mg/kg

CCCCCCCCCCCCCCCCc1ccc(C(=O)[O-])c[n+]1C
IC50 (Acetylcholinesterase [6]): 2800 µM

O=C(O)[C@H]1CCCC[C@@H]1c1c[nH]c(=O)cc1O
inhibition [21]: 57.5%

C[C@@H]1CC[C@H]2[C@H](C(=O)c3c(O)c([C@@]4(O)CC[C@@H](O)[C@H]5O[C@H]54)cn(O)c3=O)[C@H](C)C=C[C@@H]2C1
IC50 (Acetylcholinesterase [22]): 39 µM

c1cc2c[n+](c1)CCCCCCCCCCCCCc1ccc[n+](c1)CCCCCCCCCCCCC2
IC50 [3]: 72.3 µM | IC50 [4]: 193 µM | IC50 [5]: 162 µM

Cc1cc([C@@H]2CCCN2C)on1
Emax (Rattus norvegicus): 91%

O=c1cccc2n1C[C@@H]1CNC[C@H]2C1 [CYTISINICLINE]
Ki [16]: 0.00028 µM | Ki [23]: 1.7 µM

c1cc2c[n+](c1)CCCCCCCCCCCCCCc1ccc[n+](c1)CCCCCCCCCCCCC2
IC50 [3]: 175 µM | IC50 [4]: 338 µM | IC50 [5]: 279 µM

c1cncc(-c2cc(-c3cccnc3-c3cccnc3)ccn2)c1
LD50 [24]: > 240 µg

C1=C[C@H](c2cccnc2)NCC1
Ki [18]: 0.136 µM | EC50 [19]: 0.31 µM | Imax [20]: 102%

CN1CC2c3cccc(=O)n3CC3C2[C@H](CO)CC31 (some centres undefined)
Ki [16]: 0.0013 µM | IC50 [17]: 0.0039 µM

O=C(O)C[C@@H]1[C@@H](C(=O)O)NC[C@@H]1c1ccc(C(=O)O)[nH]c1=O
LD [13]: 7 mg/kg | LD [14]: 7 mg/kg | LD [15]: 7 mg/kg

Clc1ccc(C2CC3CCC2N3)cn1 (stereo in doubt; (-))
Kapp [25]: 1.4 µM | Kapp [26]: 16 µM

C[N+](C)(C)CCOC(N)=O
Kapp [25]: 0.0049 µM | Kapp [26]: 22 µM

c1cc2c[n+](c1)CCCCCCCCCCCCCCc1ccc[n+](c1)CCCCCCCCCCCC2
IC50 [3]: 79 µM | IC50 [4]: 282 µM | IC50 [5]: 233 µM

CO[C@]1(c2cn(O)c(=O)c(C(=O)[C@H]3[C@@H]4CC[C@@H](C)C[C@H]4C=C[C@H]3C)c2O)CC[C@@H](O)[C@H]2O[C@H]21
IC50 (Acetylcholinesterase [22]): 0.81 µM

c1cncc([C@H]2CCCCN2)c1
LD50 [27]: 11 mg/kg | Ki [28]: 3.7 µM

c1ccc(-c2cccnc2)nc1 [[2,3'']Bipyridinyl]
LD50 [24]: 94 µg

C[C@@H]1CC2NCC3c4cccc(=O)n4CC2C31 (some centres undefined)
Ki [16]: 0.0016 µM | IC50 [17]: 0.0048 µM

C[C@@H]1CC[C@H]2[C@H](C(=O)c3c4c(cn(O)c3=O)[C@@]3(O)CC[C@H](O)[C@H](O4)[C@@H]3O)[C@H](C)C=C[C@@H]2C1
IC50 (Acetylcholinesterase [22]): 47 µM

c1cc2c[n+](c1)CCCCCCCCCCCCCc1ccc[n+](c1)CCCCCCCCCCCC2
IC50 [3]: 42.3 µM | IC50 [4]: 149 µM | IC50 [5]: 111 µM

c1cc2c[n+](c1)CCCCCCCCCCCCCCc1ccc[n+](c1)CCCCCCCCCCCCCC2
IC50 [3]: 194 µM | IC50 [4]: 612 µM | IC50 [5]: 470 µM

CCCCCCCCCCCCCCCCc1cc[n+](C)cc1C(=O)[O-]
IC50 (Acetylcholinesterase [6]): 2600 µM
